# Test results published in patent publication US20250270170A1, “2,3-DIMETHOXY-5-METHYL-1,4-BENZOQUINONE ALKYL ALCOHOL DERIVATIVE AND USE THEREOF” (BEIJING ANJIANXI BIO-MEDICAL TECHNOLOGY CO., LTD., priority 2021, published 2025).
# Marks after values point to notes of the source that are not given here.
# Columns and labels:
# [1] = test system: human non-small cell lung cancer A549 transplanted tumor; experiment: Example 9: tumor growth in A549 transplanted tumor model; format: in vivo, nude mice
# Text: Human non-small cell lung cancer cells A549 were obtained from the Cell Bank of the Type Culture Collection Committee of Chinese Academy of Sciences (CAS, cryopreserved in liquid nitrogen in this assay). […] On D1 of the assay, the A549 cells in the logarithmic growth phase were collected, counted and resuspended in PBS, and the cell concentration was adjusted to 8×10^7 cells/mL. The cells were pipetted with a pipette to disperse them evenly, and the cells were put into a 50-mL centrifuge tube, which was placed in an ice box. A 1-mL syringe was used to draw the cell suspension, which was injected subcutaneously into the axilla of the front right limb of a nude mouse. Each animal was inoculated with 100 μL (8×10^6 cells/mouse) to establish an A549 transplanted tumor model in nude mice. After the inoculation, the animal status and tumor growth were regularly observed. On D18, the tumor diameter was measured using an electronic vernier caliper. The data were input into an Excel spreadsheet to calculate the tumor volume. Tumor-bearing mice in good health and with similar tumor volumes (101 to 156 mm^3) were selected and divided into groups using randomized block method. After the start of the assay, the tumor diameter was measured regularly, the tumor volume was calculated, and the animal body weight was also weighed and recorded. On the last day of the assay, CO2 inhalation anesthesia was used on the animals 1 hour after the administration (R01). Blood was collected through the heart, and a part of the whole blood was added with EDTA-K2 for anticoagulation. The plasma was separated by centrifugation at 4° C. and 1500 g for 10 minutes. The plasma was collected, and stored in a −40° C. to −20° C. freezer (if necessary, it can be used for the determination of the plasma drug concentration). No anticoagulant was added to the other part of the whole blood, and the serum was separated by centrifugation after the blood coagulated, which was used for the detection of blood urea nitrogen. After the blood collection, the tumor tissue was collected, weighed and photographed. Then, the tumor was divided into two parts, quickly cryopreserved by liquid nitrogen, and transferred to a −90° C. to −60° C. freezer for storage. […] [table]
# [2] = Example 9: body weight of A549 tumor-bearing nude mice; format: in vivo
# Method: On D1 of the assay, the A549 cells in the logarithmic growth phase were collected, counted and resuspended in PBS, and the cell concentration was adjusted to 8×10^7 cells/mL. The cells were pipetted with a pipette to disperse them evenly, and the cells were put into a 50-mL centrifuge tube, which was placed in an ice box. A 1-mL syringe was used to draw the cell suspension, which was injected subcutaneously into the axilla of the front right limb of a nude mouse. Each animal was inoculated with 100 μL (8×10^6 cells/mouse) to establish an A549 transplanted tumor model in nude mice. After the inoculation, the animal status and tumor growth were regularly observed. On D18, the tumor diameter was measured using an electronic vernier caliper. The data were input into an Excel spreadsheet to calculate the tumor volume. Tumor-bearing mice in good health and with similar tumor volumes (101 to 156 mm^3) were selected and divided into groups using randomized block method. After the start of the assay, the tumor diameter was measured regularly, the tumor volume was calculated, and the animal body weight was also weighed and recorded. [table]
# [3] = D18, DDP 5/7/7/7 mg/kg i.p. QW×4
# [4] = D21, DDP 5/7/7/7 mg/kg i.p. QW×4
# [5] = D25, DDP 5/7/7/7 mg/kg i.p. QW×4
# [6] = D28, DDP 5/7/7/7 mg/kg i.p. QW×4
# [7] = D32, DDP 5/7/7/7 mg/kg i.p. QW×4
# [8] = D35, DDP 5/7/7/7 mg/kg i.p. QW×4
# [9] = D39, DDP 5/7/7/7 mg/kg i.p. QW×4
# [10] = D42, DDP 5/7/7/7 mg/kg i.p. QW×4
# [11] = D46, DDP 5/7/7/7 mg/kg i.p. QW×4
smiles,measurement,setting,value
"N.N.[Cl][Pt][Cl] [DDP, cisplatin]",Mean tumor volume,"[1]; D18, DDP 4 mg/kg i.p. QW×4",127 ± 6 mm^3
same,Mean tumor volume,[1]; [3],130 ± 5 mm^3
same,Mean tumor volume,"[1]; D21, DDP 4 mg/kg i.p. QW×4",210 ± 10 mm^3
same,tumor growth inhibition rate (TGI),"[1]; D21, DDP 4 mg/kg i.p. QW×4",(−1.0%)
same,Mean tumor volume,[1]; [4],208 ± 11 mm^3
same,tumor growth inhibition rate (TGI),[1]; [4],(4.7%)
same,Mean tumor volume,"[1]; D25, DDP 4 mg/kg i.p. QW×4",297 ± 20** mm^3
same,tumor growth inhibition rate (TGI),"[1]; D25, DDP 4 mg/kg i.p. QW×4",(37%)
same,Mean tumor volume,[1]; [5],308 ± 23** mm^3
same,tumor growth inhibition rate (TGI),[1]; [5],(34%)
same,Mean tumor volume,"[1]; D28, DDP 4 mg/kg i.p. QW×4",418 ± 28** mm^3
same,tumor growth inhibition rate (TGI),"[1]; D28, DDP 4 mg/kg i.p. QW×4",(29%)
same,Mean tumor volume,[1]; [6],428 ± 30** mm^3
same,tumor growth inhibition rate (TGI),[1]; [6],(27%)
same,Mean tumor volume,"[1]; D32, DDP 4 mg/kg i.p. QW×4",561 ± 35** mm^3
same,tumor growth inhibition rate (TGI),"[1]; D32, DDP 4 mg/kg i.p. QW×4",(27%)
same,Mean tumor volume,[1]; [7],562 ± 41** mm^3
same,tumor growth inhibition rate (TGI),[1]; [7],(28%)
same,Mean tumor volume,"[1]; D35, DDP 4 mg/kg i.p. QW×4",670 ± 56** mm^3
same,tumor growth inhibition rate (TGI),"[1]; D35, DDP 4 mg/kg i.p. QW×4",(26%)
same,Mean tumor volume,[1]; [8],696 ± 52* mm^3
same,tumor growth inhibition rate (TGI),[1]; [8],(22%)
same,Mean tumor volume,"[1]; D39, DDP 4 mg/kg i.p. QW×4",914 ± 89** mm^3
same,tumor growth inhibition rate (TGI),"[1]; D39, DDP 4 mg/kg i.p. QW×4",(30%)
same,Mean tumor volume,[1]; [9],892 ± 86** mm^3
same,tumor growth inhibition rate (TGI),[1]; [9],(33%)
same,Mean tumor volume,"[1]; D42, DDP 4 mg/kg i.p. QW×4",1110 ± 119 mm^3
same,tumor growth inhibition rate (TGI),"[1]; D42, DDP 4 mg/kg i.p. QW×4",(23%)
same,Mean tumor volume,[1]; [10],1099 ± 85* mm^3
same,tumor growth inhibition rate (TGI),[1]; [10],(24%)
same,Mean tumor volume,"[1]; D46, DDP 4 mg/kg i.p. QW×4",1333 ± 176 mm^3
same,tumor growth inhibition rate (TGI),"[1]; D46, DDP 4 mg/kg i.p. QW×4",(20%)
same,Mean tumor volume,[1]; [11],1236 ± 32* mm^3
same,tumor growth inhibition rate (TGI),[1]; [11],(27%)
same,effect on growth of the A549 transplanted tumor (summary),"[1]; DDP 4 or 5/7/7/7 mg/kg QW, R01 formulation 18 or 36 mg/kg BID, combinations 18+5/7/7/7 and 36+4",no significant effect
same,Mean animal body weight,"[2]; D18, DDP 4 mg/kg i.p. QW×4",18.4 ± 0.4 g
same,Mean animal body weight,[2]; [3],18.5 ± 0.3 g
same,Mean animal body weight,"[2]; D21, DDP 4 mg/kg i.p. QW×4",18.3 ± 0.5 g
same,body weight loss rate,"[2]; D21, DDP 4 mg/kg i.p. QW×4",(0.81%)
same,Mean animal body weight,[2]; [4],18.4 ± 0.3 g
same,body weight loss rate,[2]; [4],(0.61%)
same,Mean animal body weight,"[2]; D25, DDP 4 mg/kg i.p. QW×4",18.1 ± 0.3 g
same,body weight loss rate,"[2]; D25, DDP 4 mg/kg i.p. QW×4",(1.7%)
same,Mean animal body weight,[2]; [5],18.5 ± 0.3 g
same,body weight loss rate,[2]; [5],(0.00%)
same,Mean animal body weight,"[2]; D28, DDP 4 mg/kg i.p. QW×4",18.5 ± 0.3 g
same,body weight loss rate,"[2]; D28, DDP 4 mg/kg i.p. QW×4",(−0.14%)
same,Mean animal body weight,[2]; [6],18.9 ± 0.3 g
same,body weight loss rate,[2]; [6],(−2.4%)
same,Mean animal body weight,"[2]; D32, DDP 4 mg/kg i.p. QW×4",18.7 ± 0.3 g
same,body weight loss rate,"[2]; D32, DDP 4 mg/kg i.p. QW×4",(−1.4%)
same,Mean animal body weight,[2]; [7],18.3 ± 0.4 g
same,body weight loss rate,[2]; [7],(1.3%)
same,Mean animal body weight,"[2]; D35, DDP 4 mg/kg i.p. QW×4",19.3 ± 0.3 g
same,body weight loss rate,"[2]; D35, DDP 4 mg/kg i.p. QW×4",(−4.9%)
same,Mean animal body weight,[2]; [8],19.2 ± 0.4 g
same,body weight loss rate,[2]; [8],(−4.0%)
same,Mean animal body weight,"[2]; D39, DDP 4 mg/kg i.p. QW×4",19.3 ± 0.3 g
same,body weight loss rate,"[2]; D39, DDP 4 mg/kg i.p. QW×4",(−4.6%)
same,Mean animal body weight,[2]; [9],18.0 ± 0.3 g
same,body weight loss rate,[2]; [9],(2.5%)
same,Mean animal body weight,"[2]; D42, DDP 4 mg/kg i.p. QW×4",19.8 ± 0.5 g
same,body weight loss rate,"[2]; D42, DDP 4 mg/kg i.p. QW×4",(−7.7%)
same,Mean animal body weight,[2]; [10],18.8 ± 0.4 g
same,body weight loss rate,[2]; [10],(−1.5%)
same,Mean animal body weight,"[2]; D46, DDP 4 mg/kg i.p. QW×4",19.5 ± 0.5 g
same,body weight loss rate,"[2]; D46, DDP 4 mg/kg i.p. QW×4",(−5.6%)
same,Mean animal body weight,[2]; [11],17.1 ± 0.5 g
same,body weight loss rate,[2]; [11],(7.4%)
